In a melting point compilation (Tetko et al.; mined from patent text by program, amines drawn as free bases though some values may be those of a salt):

melting point [°C]	SMILES
157 to 158	O=C1Nc2cccnc2N(C(=O)NCCN2CCCCC2CNCC2CCCC2)c2ccccc21 (configuration not stated)
89 to 91	CN(C(=O)C(C)(C)c1cc(C(F)(F)F)cc(C(F)(F)F)c1)c1ccc(Cl)cc1C(=O)c1ccccc1
119 to 123	Cc1ccccc1C(O)C1CCN(C)CC1 (configuration not stated)
119	CC(=O)CCCN1CCC(NC(=O)c2cc(Cl)c(N)c3c2OC(C)(C)C3)CC1
132 to 133	CC(F)(F)c1cccc(C[C@@H](C(=O)O)[C@@H](O)c2ccc(F)cc2)c1 (racemic)
240 to 242	CC(=O)NCc1coc2cc(NS(C)(=O)=O)c(Oc3ccccc3)cc2c1=O
105 to 106	COc1cc(COc2nn(Cc3ccccc3)cc2C(C)O)ccc1OCc1nc(-c2ccco2)oc1C (configuration not stated)
301 to 304	Cc1nc(N)nc(N)c1N1CCN(c2ccc(S(=O)(=O)N(C)C)cc2)CC1
100 to 102	COC1CCC(O)C(COS(=O)(=O)c2ccc(C)cc2)O1 (configuration not stated)
106 to 109	CCCc1ccc(C(=O)O)cc1[N+](=O)[O-]
64 to 66	C[C@H]1C[C@@](O)(c2csc(S(=O)(=O)c3ccc4c(c3)CCC(=O)N4C)c2)CCO1
259 to 261	CCOC(=O)Cc1cnc(Nc2n[nH]c3ccc(-c4ncccc4Cl)cc23)s1
192 to 194	COc1cc2c(cc1C=O)C(C)(C)C(=O)N2C
322 to 323	NC(=O)c1ccc2c(c1)C(=O)c1cc(F)ccc1C2=O
118 to 120	COc1cc2c(cc1OC)C(C=Cc1ccccc1)=NN(C(C)=O)C(C)C2 (configuration not stated)
158 to 159	N#Cc1ccc2c(c1)N=Cc1ccccc1O2
226	CCNc1ccc(C(N)=O)cc1[N+](=O)[O-]
150 to 152	CC(C(N)=S)(c1ccccc1)c1ccccc1

melting point [°C]	SMILES
227	O=C(Nc1cccc(S(=O)(=O)N2CCCC2)c1)c1cnn2c(C(F)F)cc(-c3ccc(Cl)cc3)nc12
94 to 95	CN1C[C@@H](C(=O)OCc2ccccc2)NC1=O
124 to 125	O=C(CCCCCBr)Nc1ccc(O)cc1
228 to 230	COCCOc1cc2ncnc(C3C(=O)N(C=O)c4ccccc43)c2cc1OC (configuration not stated)
> 250	O=c1[nH]c2c([nH]c1=O)C1=C(CCC(n3cccc3)=C1)CC2
53 to 55	CCOC(=O)C=Cc1cccc([N+](=O)[O-])c1C
170 to 172	CCCc1c(OCc2cccn3c(=O)c(C(=O)O)cnc23)ccc(C(C)=O)c1O
206 to 208	CSc1ccccc1-n1ncc(-c2ccc(S(C)(=O)=O)cc2)c(-c2ccc(F)cc2)c1=O
123 to 125	Cc1ncnc(-c2cc([N+](=O)[O-])c(C#N)cc2F)c1Cl
141 to 143	O=C1c2ccccc2C(=O)N1CCN(OCc1ccccc1)C(=S)Nc1c(F)cccc1F
245 to 249	O=C1Nc2cc(Br)ccc2Oc2cscc21
149 to 153	Cc1cncn1CC#CCn1ccn(C)c1=O
232 to 233	Nc1nc2c(c(Nc3ccc(F)c(Cl)c3)n1)-c1ccccc1C2
244 to 245	Oc1ccc2c(ccc3ccccc32)c1-c1c(O)ccc2c1ccc1ccccc12
144	CCOC(=O)c1oc(-c2ccc(C)cc2)cc(=O)c1Br
107 to 108	CCOCc1nc2c(N)nc(C)c(C)c2n1CCOCc1ccccc1
164 to 166	C=C(c1cc(F)ccc1O)n1ccnc1

The remaining lines, values behind:

SMILES	melting point [°C]
C=CCc1c(-c2ccc(C#N)cc2)[nH]c2cc(C#N)ccc12	217 to 221
COC(=O)C[C@H](O)CC(=O)C=Cc1c(-c2ccc(F)cc2)c(-c2ccccc2)c(C(=O)Nc2cccc(S(N)(=O)=O)c2)n1C(C)C	89 to 91
CC(=O)Oc1ccc(NC(=O)c2ccc(C3OCC(SC(C)C(O)(Cn4cncn4)c4ccc(F)cc4F)CO3)cc2)cc1 (configuration not stated)	127
O=C(Nc1ccc([C@@H]2[C@H]3COC(=O)[C@H]32)c(F)c1)OCc1ccccc1	141 to 142
O=c1[nH]c2cscc2c(=O)n1CCN1CCN(c2ccc(F)cc2)CC1	> 250
COc1ccc(OCC2(CI)CC2)cc1	53 to 54
CSc1ccc([N+](=O)[O-])c2nonc12	118 to 120
COC(=O)C1Oc2ccc([N+](=O)[O-])cc2O1 (configuration not stated)	90 to 92
O=C(O)Cc1ccc(CC2CCCCC2=NO)cc1 (configuration not stated)	180 to 184
COc1ccc2[nH]c3c(c2c1)C[C@@]1(C)C(=O)N(CCN2CCCC2)C(=O)N1[C@@H]3c1cccc(O)c1 (racemic)	252 to 255
N#CCc1coc2ccc3c(c12)C=CCO3	99 to 101
CN1C(=NC(=O)c2ccc(F)cc2)C(C(F)(F)F)(C(F)(F)F)NC1c1ccc(F)cc1 (configuration not stated)	132 to 133
COc1cc(OCCOC(C)C)cc2nc(-c3cc(C)nc(C)c3)[nH]c(=O)c12	188 to 189
NC(=O)/C=C/c1cc([N+](=O)[O-])ccc1Cl	208 to 210
O=S(=O)(Nc1ccccc1OCC1CCN(c2ccncc2)CC1)c1ccc2cc(Br)ccc2c1	197 to 200
Cc1ccc(COC2C(Sc3ccccc3)OC(C)C(O)C2O)cc1 (configuration not stated)	146 to 147
COc1cc(OC)nc(Sc2nccc(-c3ccc(Cl)cc3)c2C(=O)O)n1	219 to 223
Cn1c(COc2ccc(CC(OCc3ccc(F)cc3)C(=O)O)cc2)nc2ccc(Oc3ccc(C45CC6CC(CC(C6)C4)C5)cc3)cc21 (configuration not stated)	148 to 149
COCCOc1ccc(CCCOc2nn(C)cc2CC(=O)O)c(Oc2ncc(C(F)(F)F)cc2Cl)c1	127 to 129
CS(=O)c1ccc(-c2nn(Cc3ccc(Cl)cc3Cl)c(=O)cc2-c2ccc(F)cc2)cc1 (configuration not stated)	214
CCOP(=O)(OCC)C(CC(NC(=O)OC(C)(C)C)C(=O)c1ccccc1)P(=O)(OCC)OCC (configuration not stated)	56 to 57

SMILES	melting point [°C]
COc1ccc(Cn2c(=S)[nH]c(=O)c3[nH]cnc32)cc1OC1CCCC1	254 to 265
CC(Cc1c[nH]c2ccccc12)(NC(=O)OC1C2CC3CC(C2)CC1C3)C(=O)NC(CC(=O)O)Cc1ccccc1 (configuration not stated)	123 to 137
CC(C)c1cccc(C(C)C)c1NS(=O)(=O)NC(=O)N(Cc1ccccc1)Cc1ccccc1	140 to 142
CN1C(=O)[C@@H](NC(=O)C=Cc2ccccc2)N=C(c2ccccc2)c2ccccc21	126 to 140
CC1(C)C(Cl)C(=O)C1CC(Br)(Br)Br (configuration not stated)	87 to 89
CN1CCCc2cc(CC3SC(=O)NC3=O)ccc21 (configuration not stated)	122 to 125
CC(C)CCNCCCS(=O)(=O)O	220
O=C1c2ccccc2C(=O)N1c1cc(Cl)c(OC(F)(F)C(F)(F)Br)c(Cl)c1	62 to 63.5
COc1ccc(C(=O)CCC(C(=O)c2ccc(OCc3ccccc3)cc2)c2ccc(OC)cc2)cc1 (configuration not stated)	132 to 134
CCc1cc(Br)cc(C(=O)Nc2ccc(F)cn2)n1	124
c1ccc(CN(Cc2ccccc2)OCCCCCCCCON(Cc2ccccc2)Cc2ccccc2)cc1	49 to 51
COc1cc2ccccc2cc1-c1nc(N)nc(N)n1	243 to 244
COc1cccc(-n2ccc(=O)c(-c3ccnn3-c3ccccc3)n2)c1	110 to 111
CN1C=C(C(=O)O)C(C(=N)O)=NC1N1CCN(Cc2ccccc2)CC1 (configuration not stated)	158 to 160
CCCCCCCCCCCCCCOc1ccc(CN2C(=O)c3ccncc3C2=O)cc1	76 to 77
CCOC(=O)CC1OC(=O)c2c(Oc3nc(OC)cc(OC)n3)cccc21 (configuration not stated)	150 to 152
Nc1ncc(C#Cc2ccc(Cl)cc2)c(OC2CCC(=O)CC2)n1	168 to 172
CN1Cc2csc(=S)n2-c2ccc(F)c(F)c21	165 to 167
CCC(C)(C)NC(=S)Nc1cc(F)cc(Br)c1	123 to 124
COCC(C)N(Cc1ccc(OC)c(OC)c1)C(=O)C(Cl)Cl (configuration not stated)	75 to 76
CCCCCCCCCCCCCCCCc1c(O)c(CN(C)C(=O)Oc2cccc([N+](=O)[O-])c2)c(CCC)c(O)c1CN(C)C(=O)Oc1cccc([N+](=O)[O-])c1	89 to 95

SMILES	melting point [°C]
O=c1ccn(CCO)c(C(O)c2ccc(Cl)cc2)c1O (configuration not stated)	184 to 186
Cc1ccc(NC(=O)C(C)(C)C)c(-c2ccnc(OCC(F)(F)F)n2)c1	126 to 128
CCS(=O)(=O)c1ccc(-c2nc(-c3nc4cc(OC)cc(OC)c4c(=O)[nH]3)ccc2OCCO)cc1	282 to 284
O=C(O)C(=O)c1ccc(OCCSc2ccccc2)cc1	72 to 73
Oc1nc(NCc2ccc(F)cc2)nc(Nc2cccc(C(F)(F)F)c2)n1	266 to 268
CCOC(=O)N1CC[C@H](O)[C@@H]1C(c1ccccc1)c1ccccc1 (relative stereo)	104 to 105
COC12CC(CCOC(=O)c3[nH]c(C)cc3C)CN(C)C1Cc1cn(C)c3cccc2c13 (configuration not stated)	152 to 153
Nc1c(Cl)cc(C(O)CNC2CC2)cc1C(F)(F)F (configuration not stated)	138 to 139
O=C1NCN(c2ccccc2)C12CCN(CCCNc1ccc(F)cc1)CC2	158 to 162
C=C(C)n1c(=O)n(-c2ccc(CCNC[C@H](O)COc3ccc(O)cc3)cc2)c2ncccc21	62 to 64
NCC1Cc2cc(C(F)(F)F)cc(-c3ccc(F)cc3)c2O1 (configuration not stated)	> 250
CC(C)Oc1ccc(-c2ccc(C#N)cc2)cc1C=O	94 to 96
CCc1ccc2scc(CCNC(C)=O)c2c1	87 to 88
CCC(=O)OCC(=O)C1(OC(=S)CC)CCC2C3CC(C)C4=CC(=O)C=CC4(C)C3C(O)CC21C (configuration not stated)	117 to 119
O=C(O)c1ccc2c(c1)nc(-c1ccc(Oc3cccc(OCc4ccncc4)c3)cc1)n2C1CCCCC1	235 to 237
CC(C)Oc1ccc(CCCOc2cc(CCC(=O)O)n(C)n2)c(OCc2ccc(C(F)(F)F)cc2)c1	88 to 89
Cc1ccnc(C(O)c2sc(NC(=N)N)nc2C)c1 (configuration not stated)	150 to 152
O=C(O)C1CCCc2c(-c3ccc(Cl)c(Cl)c3)noc2C1 (configuration not stated)	183 to 185
C=CCc1c(OC)ccc(-c2cc(-c3ccc(Cl)cc3)n(-c3ccc(OC)cc3)n2)c1OC	44 to 46
COC(=O)COc1cc(C(C)=O)c(O)c2ccccc12	123 to 124
